# Laboratory results taken from US7074743B1, “Herbicidal composition comprising 4-iodo-2-[3-(4-methoxy-6-methyl-1,3,5-triazin-2-yl)ureidosulfonyl]benzoic esters” (priority 1995, dated 2006).
# Columns and labels:
# Assay type in all cases: in vivo
# Mercurialis annua = experiment: Herbicidal action on MERAN, visual scoring vs untreated, post-emergence 2-4 leaf stage; settings: Table 11
# Protocol: (§1) The examples given below were performed in the greenhouse and, in some cases, in field trials.
# (§2) The herbicides, or combinations, were applied in cereals after the weeds had emerged naturally using plot sprayers. After application, the results, such as damage to the crop plants and effect on broad-leaved weeds/grass weeds were assessed by means of visual scoring. The herbicidal action was assessed qualitatively and quantitatively by comparing untreated and treated plots on the basis of the effect on plant growth and the development of chloroses and necroses down to the complete destruction of the weeds (0–100%). The application was effected when the crop plants and weeds were in the 2–4 leaf stage. The test was evaluated approximately 4 weeks after application.
# (§3) In the greenhouse experiments, the crop plants and broadleaved weeds/grass weeds were grown in No. 13 pots and treated in the 2–4 leaf stage. The pots were subsequently placed in the greenhouse under good growth conditions (temperature, atmospheric humidity, water supply).
# (§4) The assessments were carried out similarly to those in the field trials, i.e. visual scoring of the treated plants in comparison with untreated control variants. These assessments were carried out 3 weeks after applying the test preparations and their combinations. The experiments had been set up in two replications.
# (§5) To assess the combination effects, the activities of the individual components were added and compared with the activity of the mixtures in equal doses. It was frequently observed that the efficacies of the combinations exceeded the total of the individual activities.
# (§6) In cases with less clear effects, the expected value was calculated using Colby's formula and compared with the empirically determined result. The calculated efficacy of a combination which is expected in theory is determined is using S.R. Colby's formula: “Calculation of synergistic and antagonistic responses of herbicide combinations”, Weeds 15 (1967), pages 20 to 22.
# (§7) [formula] where • X=% damage caused by herbicide A at a rate of ×kg a.i./ha; • Y=% damage caused by herbicide B at a rate of y kg a.i./ha; • Z=% damage caused by a further herbicide C at a rate of z kg a.i./ha; • E=expected value, i.e. expected damage caused by herbicides A+B (or A+B+C) at x+y (or x+y+z) kg a.i./ha.
# (§8) Synergistic effects were assumed to be when the empirical value exceeded the expected value. In the case of combinations with individual components with the same active substances, comparisons via the total formula were also possible.
# Viola arvensis = experiment: Herbicidal action on VIOAR, visual scoring vs untreated, post-emergence 2-4 leaf stage; settings: Table 7
# Protocol: as §1, §2, §3, §4, §5, §6, §7, §8
# Echinochloa crus galli = experiment: Herbicidal action on ECHCR, visual scoring vs untreated, post-emergence 2-4 leaf stage
# Protocol: as §1, §2, §3, §4, §5, §6, §7, §8
# Avena fatua = experiment: Herbicidal action on AVEFA, visual scoring vs untreated, post-emergence 2-4 leaf stage; settings: Table 11
# Protocol: as §1, §2, §3, §4, §5, §6, §7, §8
# Triticum aestivum = experiment: Damage to crop plant TRZAW, visual scoring vs untreated
# Protocol: as §1, §2, §3, §4
# Secale cereale = experiment: Damage to crop plant SECCW, visual scoring vs untreated
# Protocol: as §1, §2, §3, §4
# Lolium multiflorum = experiment: Herbicidal action on LOLMU, visual scoring vs untreated, post-emergence 2-4 leaf stage; settings: Table 2; 3 g of a.i./ha
# Protocol: as §1, §2, §3, §4, §5, §6, §7, §8
smiles,measurement,setting,value
"COC(=O)c1ccc(I)cc1S(=O)(=O)NC(=O)Nc1nc(C)nc(OC)n1.[Na] [A), sodium salt of methyl 4-iodo-2-[3-(4-methoxy-6-methyl-1,3,5-triazin-2-yl)ureidosulfonyl]benzoate]",MERAN % control,Mercurialis annua; 5 g of a.i./ha,70%
same,MERAN % control,Mercurialis annua; 10 g of a.i./ha,94%
same,VIOAR % control,Viola arvensis; 2.5 g of a.i./ha,58%
same,VIOAR % control,Viola arvensis; 5 g of a.i./ha,75%
same,VIOAR % control,Viola arvensis; 10 g of a.i./ha,95%
same,VIOAR % control,Viola arvensis; 20 g of a.i./ha,98%
same,ECHCR % control,"Echinochloa crus galli; Table 4, 10 g of a.i./ha",65%
same,ECHCR % control,"Echinochloa crus galli; Table 4, 20 g of a.i./ha",75%
same,ECHCR % control,"Echinochloa crus galli; Table 4, 40 g of a.i./ha",80%
same,ECHCR % control,"Echinochloa crus galli; Table 4, 80 g of a.i./ha",88%
same,ECHCR % control,"Echinochloa crus galli; Table 8, 10 g of a.i./ha",65%
same,ECHCR % control,"Echinochloa crus galli; Table 8, 20 g of a.i./ha",73%
same,ECHCR % control,"Echinochloa crus galli; Table 8, 40 g of a.i./ha",80%
same,ECHCR % control,"Echinochloa crus galli; Table 8, 80 g of a.i./ha",88%
same,AVEFA % control,Avena fatua; 5 g of a.i./ha,60%
same,AVEFA % control,Avena fatua; 10 g of a.i./ha,80%
same,TRZAW % damage,"Triticum aestivum; Table 1, 3 g of a.i./ha",0%
same,TRZAW % damage,"Triticum aestivum; Table 1, 5 g of a.i./ha",0%
same,TRZAW % damage,"Triticum aestivum; Table 1, 10 g of a.i./ha",0%
same,TRZAW % damage,"Triticum aestivum; Table 1, 20 g of a.i./ha",0%
same,TRZAW % damage,"Triticum aestivum; Table 2, 3 g of a.i./ha",0%
same,TRZAW % damage,"Triticum aestivum; Table 2, 5 g of a.i./ha",0%
same,TRZAW % damage,"Triticum aestivum; Table 2, 10 g of a.i./ha",0%
same,TRZAW % damage,"Triticum aestivum; Table 2, 20 g of a.i./ha",0%
same,TRZAW % damage,"Triticum aestivum; Table 3, 3 g of a.i./ha",0%
same,TRZAW % damage,"Triticum aestivum; Table 3, 5 g of a.i./ha",0%
same,TRZAW % damage,"Triticum aestivum; Table 3, 10 g of a.i./ha",0%
same,TRZAW % damage,"Triticum aestivum; Table 3, 20 g of a.i./ha",0%
same,TRZAW % damage,"Triticum aestivum; Table 5, 2.5 g of a.i./ha",0%
same,TRZAW % damage,"Triticum aestivum; Table 5, 5 g of a.i./ha",0%
same,TRZAW % damage,"Triticum aestivum; Table 5, 10 g of a.i./ha",0%
same,TRZAW % damage,"Triticum aestivum; Table 5, 20 g of a.i./ha",10%
same,TRZAW % damage,"Triticum aestivum; Table 5, 40 g of a.i./ha",15%
same,TRZAW % damage,"Triticum aestivum; Table 5, 80 g of a.i./ha",18%
same,TRZAW % damage,"Triticum aestivum; Table 5, 160 g of a.i./ha",28%
same,TRZAW % damage,"Triticum aestivum; Table 7, 2.5 g of a.i./ha",0%
same,TRZAW % damage,"Triticum aestivum; Table 7, 5 g of a.i./ha",0%
same,TRZAW % damage,"Triticum aestivum; Table 7, 10 g of a.i./ha",2%
same,TRZAW % damage,"Triticum aestivum; Table 7, 20 g of a.i./ha",10%
same,TRZAW % damage,"Triticum aestivum; Table 9, 2.5 g of a.i./ha",0%
same,TRZAW % damage,"Triticum aestivum; Table 9, 5 g of a.i./ha",0%
same,TRZAW % damage,"Triticum aestivum; Table 9, 10 g of a.i./ha",2%
same,TRZAW % damage,"Triticum aestivum; Table 9, 20 g of a.i./ha",10%
same,TRZAW % damage,"Triticum aestivum; Table 9, 40 g of a.i./ha",15%
same,SECCW % damage,"Secale cereale; Table 6, 5 g of a.i./ha",0%
same,SECCW % damage,"Secale cereale; Table 6, 10 g of a.i./ha",0%
same,SECCW % damage,"Secale cereale; Table 6, 15 g of a.i./ha",5%
same,SECCW % damage,"Secale cereale; Table 10, 5 g of a.i./ha",0%
same,SECCW % damage,"Secale cereale; Table 10, 10 g of a.i./ha",0%
same,SECCW % damage,"Secale cereale; Table 10, 15 g of a.i./ha",5%
same,LOLMU % control,Lolium multiflorum,0%
